pEC50: −log10 of the molar value. “And” between values parts separate entries of the source, which are not always exact repeats. Equal values may be shown once.
Key:
Human MOR = Human MOR (Homo sapiens (Human), UniProt P35372); test: BRET G protein activation assay, human MOR in transfected HEK-293T cells; type: cell-based; conditions: BRET G protein activation, HEK-293T; mean ± SEM; read-out: EC50 Human MOR
Excerpt: (§1) Transfection. Human or mouse MOR cDNA was transfected alongside GαoB with RLuc8 inserted at position 91 (GαoB-RLuc8), Gβ1 (β1), and Gγ2 fused to the full-length mVenus at its N terminus (mVenus γ2) into HEK-293T cells (5×10^6 cells/plate) in 10-cm dishes using PEI (Polysciences Inc.; Warrington, PA) in a 1:1 ratio diluted in Opti-MEM (Life Technologies Corp.; Grand Island, NY) to assay for G protein activation as described previously (Rives, M.-L. et al. J. Biol. Chem. 2012, 287, 27050-4; Negri, A.; Rives, M.-L.; Caspers, M. J. et al. J. Chem. Inf. Model. 2013, 53, 521-526). Cells were maintained in the Dulbecco's Modified Eagle Medium (high glucose #11965; Life Technologies) supplemented with 10% FBS (Premium Select, Atlanta Biologicals; Atlanta, GA) and 100 U/mL penicillin and 100 μg/mL streptomycin (#15140, Life Technologies). After 24 hours the media was changed, and the experiment was performed 24 hours later (48 hours after transfection).
(§2) BRET. Transfected cells were dissociated and resuspended in phosphate-buffered saline (PBS). Approximately 200,000 cells/well were added to a black-framed, white well 96-well plate (#60050; Perkin Elmer; Waltham, MA). The microplate was centrifuged and the cells were resuspended in PBS. Then 5 μM of the luciferase substrate coelenterazine H was added to each well for 5 minutes. Following coelenterazine H addition, ligands were added and the BRET signal was measured at 5 minutes on a PHERAstar FS plate reader. Quantification of the BRET signal required calculating the ratio of the light emitted by the energy acceptor, mVenus (510-540 nm), over the light emitted by the energy donor, RLuc8 (485 nm). […] Dose response curves were fit using three-parameter logistics equation in GraphPad Prism 6.

Mouse MOR = Mouse MOR (Mus musculus (Mouse), UniProt P42866); test: BRET G protein activation assay, mouse MOR in transfected HEK-293T cells; type: cell-based; conditions: mean ± SEM
Chain of Mouse MOR (P42866 whole entry, looked up): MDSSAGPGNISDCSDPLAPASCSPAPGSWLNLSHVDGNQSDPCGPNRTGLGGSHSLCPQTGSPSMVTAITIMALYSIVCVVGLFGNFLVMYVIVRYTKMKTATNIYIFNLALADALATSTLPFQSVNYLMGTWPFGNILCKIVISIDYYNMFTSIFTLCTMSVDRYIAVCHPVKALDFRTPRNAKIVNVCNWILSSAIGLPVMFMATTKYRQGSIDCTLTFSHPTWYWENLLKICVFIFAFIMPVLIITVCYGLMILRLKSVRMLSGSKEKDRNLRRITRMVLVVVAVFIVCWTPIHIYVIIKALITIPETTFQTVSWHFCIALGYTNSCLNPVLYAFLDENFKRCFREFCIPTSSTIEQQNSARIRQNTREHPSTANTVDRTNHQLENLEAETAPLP
Excerpt: as §1, §2

[1] = Pharmacokinetics and brain distribution after single intraperitoneal dose in male C57BL/6 mice; conditions: for MRT last: MRTlast
Description: For each compound, a group of twenty-four male mice were administered with a solution formulation of the drug in normal saline intraperitoneally at a dose of 10 mg/kg. Blood samples (approximately 60 μL) were collected under light isoflurane anesthesia from the retro orbital plexus at 0.08, 0.25, 0.5, 1, 2, 4, 8 and 24 hr. Plasma samples were separated by centrifugation of whole blood and stored below −70° C. until bioanalysis. Immediately after collection of blood, brain samples were collected from each mouse at 0.08, 0.25, 0.5, 1, 2, 4, 8 and 24 hr. Brain samples were homogenized using ice-cold phosphate buffer saline (pH 7.4) and homogenates were stored below −70° C. until analysis. Total homogenate volume was three times the tissue weight. All samples were processed for analysis by protein precipitation using acetonitrile (ACN) and analyzed with fit-for-purpose LC/MS/MS method (LLOQ—1.01 ng/mL in plasma and brain). Pharmacokinetic parameters were calculated using the non-compartmental analysis tool of Phoenix WinNonlin® (Version 6.3).

[2] = brain, i.p. 10 mg/kg, male C57BL/6 mice
[3] = i.p. 10 mg/kg, male C57BL/6 mice
[4] = male, C57BL/6, mouse, in vivo, ip, 10 mg/kg
[5] = male, C57BL/6, mouse, in vivo, ip, 10 mg/kg, brain, i.p. 10 mg/kg, male C57BL/6 mice
[6] = male, C57BL/6, mouse, in vivo, ip, 10 mg/kg, plasma, i.p. 10 mg/kg, male C57BL/6 mice

Chain of Human MOR (P35372 whole entry, the tested form may be a part): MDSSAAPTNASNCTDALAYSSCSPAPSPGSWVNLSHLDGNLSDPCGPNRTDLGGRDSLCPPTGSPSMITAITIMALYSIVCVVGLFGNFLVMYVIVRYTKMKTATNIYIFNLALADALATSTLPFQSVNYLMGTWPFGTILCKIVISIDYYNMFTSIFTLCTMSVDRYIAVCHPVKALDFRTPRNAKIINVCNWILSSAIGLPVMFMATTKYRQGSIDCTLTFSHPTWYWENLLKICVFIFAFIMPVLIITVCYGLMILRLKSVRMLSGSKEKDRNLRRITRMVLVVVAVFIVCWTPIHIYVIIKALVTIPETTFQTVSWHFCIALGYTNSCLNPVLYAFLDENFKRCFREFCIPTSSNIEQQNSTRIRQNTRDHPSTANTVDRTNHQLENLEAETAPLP

| SMILES | pEC50 (Human MOR) | pEC50 (Mouse MOR) | also measured |
| --- | --- | --- | --- |
| CCCCCNC1c2ccccc2N(C)S(=O)(=O)c2cc(Cl)ccc21 (stereo not shown) [compound 19, 3-Chloro-6-methyl-11-(pentylamino)-6,11-dihydrodibenzo [c,f][1,2]thiazepine 5,5-dioxide] | > 5.00 | > 5.00 |  |
| COCCCNC1c2ccccc2N(C)S(=O)(=O)c2cc(SC)ccc21 (stereo not shown) [compound 44, 11-((3-Methoxypropyl)amino)-6-methyl-3-(methylthio)-6,11-dihydrodibenzo[c,f][1,2]thiazepine 5,5-dioxide] | > 5.00 | > 5.00 |  |
| CCCCCNC1c2ccccc2N(C)S(=O)(=O)c2ccccc21 (stereo not shown) [compound 8, 6-Methyl-11-(pentylamino)-6,11-dihydrodibenzo[c,f][1,2]thiazepine 5,5-dioxide] | > 5.00 | > 5.00 |  |
| CCCNC1c2ccccc2N(C)S(=O)(=O)c2cc(Cl)ccc21 (stereo not shown) [compound 21, 3-Chloro-6-methyl-11-(propylamino)-6,11-dihydrodibenzo [c,f][1,2]thiazepine 5,5-dioxide] | > 5.00 | > 5.00 |  |
| CNC1c2ccccc2N(C)S(=O)(=O)c2cc(Cl)ccc21 (stereo not shown) [compound 20, 3-Chloro-6-methyl-11-(methylamino)-6,11-dihydrodibenzo [c,f][1,2]thiazepine 5,5-dioxide] | > 5.00 | > 5.00 |  |
| CC(C)NC1c2ccccc2N(C)S(=O)(=O)c2cc(Cl)ccc21 (stereo not shown) [compound 22, 3-Chloro-11-(isopropylamino)-6-methyl-6,11-dihydrodibenzo [c,f][1,2]thiazepine 5,5-dioxide] | > 5.00 | > 5.00 |  |
| CCOC(=O)CCCCNC1c2ccccc2N(C)S(=O)(=O)c2cc(Cl)ccc21 (stereo not shown) [compound 17, Ethyl 5-((3-chloro-6-methyl-5,5-dioxido-6,11-dihydrodibenzo[c,f][1,2]thiazepin-11-yl)amino)pentanoate] | > 5.00 | > 5.00 |  |
| COCCCNC1c2ccccc2N(C)S(=O)(=O)c2cc(Cl)ccc21 (stereo not shown) [compound 23, 3-Chloro-11-((3-methoxypropyl)amino)-6-methyl-6,11-dihydrodibenzo [c,f][1,2]thiazepine 5,5-dioxide] |  |  | AUClast [1, 2]: 335.03 ng·h/g; CL [1, 2]: 260.44 mL/min/kg; half-life compared with tianeptine [1, 3]: much longer half-life; systemic exposure (AUC) compared with tianeptine [1, 3]: higher systemic exposure (AUC); AUC(0-t) [1, 4]: 3060 ng·h/mL; Cmax [1, 4]: 1540 ng/mL and 378 ng/g; MRT last [1, 5]: 1.27 h; MRT last [1, 6]: 2.29 h; half-life ([1]; male, C57BL/6, mouse, in vivo, ip, 10 mg/kg, T1/2, brain, i.p. 10 mg/kg, male C57BL/6 mice): 5.12 h; half-life ([1]; male, C57BL/6, mouse, in vivo, ip, 10 mg/kg, T1/2, plasma, i.p. 10 mg/kg, male C57BL/6 mice): 3.93 h; Tmax [1, 5]: 0.08 h; Tmax [1, 6]: 0.25 h; CL ([1]; plasma, i.p. 10 mg/kg, male C57BL/6 mice): 44.27 mL/min/kg |
| CN1c2ccccc2C(NCCCCC(=O)O)c2ccc(Cl)cc2S1(=O)=O (stereo not shown) [compound 18, 5-((3-Chloro-6-methyl-5,5-dioxido-6,11-dihydrodibenzo[c,f][1,2]thiazepin-11-yl)amino)pentanoic acid] | > 5.00 | > 5.00 |  |
| CCOC(=O)CCCCCCNC1c2ccc(Cl)cc2S(=O)(=O)N(C)c2ccsc21 (stereo not shown) [compound 79, Ethyl 7-((7-chloro-4-methyl-5,5-dioxido-4, 10-dihydrobenzo[f]thieno[3,2-c][1,2]thiazepin-10-yl)amino)heptanoate] | > 5.00 |  |  |
| COCCCNC1c2ccccc2N(C)S(=O)(=O)c2ccc(Cl)cc21 (stereo not shown) [compound 60, 2-Chloro-11-((3-methoxypropyl)amino)-6-methyl-6,11-dihydrodibenzo [c,f][1,2]thiazepine 5,5-dioxide] | > 4.70 |  |  |
| COCCCNC1c2ccccc2N(C)S(=O)(=O)c2cc(SC(C)C)ccc21 (stereo not shown) [compound 63, 3-(Isopropylthio)-11-((3-methoxypropyl)amino)-6-methyl-6,11-dihydrodibenzo[c,f][1,2]thiazepine 5,5-dioxide] | > 5.00 |  |  |
| COCCNC1c2ccccc2N(C)S(=O)(=O)c2cc(Cl)ccc21 (stereo not shown) [compound 42, 3-Chloro-11-((2-methoxyethyl)amino)-6-methyl-6,11-dihydrodibenzo [c,f][1,2]thiazepine 5,5-dioxide] | > 5.00 |  |  |
| CCCCCCCNC1c2ccccc2N(C)S(=O)(=O)c2cc(Cl)ccc21 (stereo not shown) [compound 26, 3-Chloro-11-(heptylamino)-6-methyl-6,11-dihydrodibenzo [c,f][1,2]thiazepine 5,5-dioxide] | > 5.00 |  |  |
| CCN1c2ccccc2C(NCCCOC)c2ccccc2S1(=O)=O (stereo not shown) [compound 65, 6-Ethyl-11-((3-methoxypropyl)amino)-6,11-dihydrodibenzo[c,f][1,2]thiazepine 5,5-dioxide] | < 4.70 |  |  |
| COCCCNC1c2ccccc2S(=O)(=O)N(C)c2c(OC)cccc21 (stereo not shown) [compound 50, 7-Methoxy-11-((3-methoxypropyl)amino)-6-methyl-6,11-dihydrodibenzo [c,f][1,2]thiazepine 5,5-dioxide] | > 4.70 |  |  |
| CSCCCNC1c2ccccc2N(C)S(=O)(=O)c2cc(Cl)ccc21 (stereo not shown) [compound 33, 3-Chloro-6-methyl-11-((3-(methylthio)propyl)amino)-6,11-dihydrodibenzo[c,f][1,2]thiazepine 5,5-dioxide] | > 5.00 |  |  |

Source: patent US20240092802A1, “MU-OPIOID RECEPTOR AGONISTS AND USES THEREFOR” (Kures, Inc., priority 2020, published 2024)
